Laboratory results from US9149618B2, “Built-in non-verbal instructional device integratable to applicators” (NANOMED SKINCARE, INC., priority 2010, dated 2015).
Where two headings read alike, the source gives them in different places.

Assays:
[1] = In vitro permeation study, Franz-type diffusion cells, human cadaver skin; assay type: in vitro ADME
Procedure: Samples of full-thickness dermatomed human cadaver skins (≈800 μm) were obtained from the Burns Institute, 304th Clinical Department, The General Hospital of PLA, Trauma Center of Postgraduate Medical College and were free from overt pathology. The skin samples were kept frozen in liquid nitrogen and used within 3 months.
(§1) The method of the percutaneous absorption study adheres to the Test Guideline 428 of Organization for Economic Cooperation and Development (2004). The experiment was performed with a system employing Franz-type glass diffusion cells. The temperature in the receptor chamber was maintained at physiological temperature of 37.0±0.1° C. with an external, constant temperature circulating water bath.
Skin samples were treated using FMA delivery system. The insertion force was provided by the applicator. The skins without FMA treatment were used as control. The skin was mounted on a receptor chamber (2.5 ml) with the stratum corneum side facing upward into the donor chamber with effective permeation area of 0.66 cm^2. The receptor and donor chambers were filled with PBS solution, and the receptor fluid was continuously stirred with a magnetic bar at 280 rpm to maintain homogeneity. After 1 h equilibration, the solution in the receptor chamber was replaced with fresh PBS, and 300 μl of LC solution or 300 mg of LC gel was applied on the skin in the donor chamber, which was then covered with a parafilm to avoid any evaporation process. […] The samples were analyzed by HPLC/UV. The results were expressed as the mean±S.D. (n=3-4 independent samples).
The quantitative determination of LC was performed by HPLC using methanol-190 mM KH2PO4 water (87:13) as mobile phase at a flow rate of 0.6 ml/min, by LC-2010A (Shimadzu, Japan). […] The column eluant was monitored at 225 nm. […]
The cumulative amount of drug permeated per unit area versus time was plotted. The permeation rates of LC were calculated from the slope of linear portion of the plots. […] Statistically significant differences were determined using the analysis of variance (ANOVA) with P<0.05 as a minimal level of significance.

[2] = In vitro permeation study, Franz-type diffusion cells, rat skin; assay type: in vitro ADME
Text: Male Sprague-Dawley rats (220-250 g) were provided by Beijing Weitong Lihua Experimental Animals Ltd. Co. (Beijing China). Forty-eight hours before the test, rats were anesthetized by ether, and then the abdominal hair of each rat was shaved with an electric hair clipper. At the beginning of in vitro studies, animals were euthanized using carbon dioxide and full-thickness skins were removed. All research protocols adhered to the Guide for the Care and Use of Laboratory Animals (1996).
as §1
Skin samples were treated using FMA delivery system. The insertion force was provided by the applicator. The skins without FMA treatment were used as control. The skin was mounted on a receptor chamber (2.5 ml) with the stratum corneum side facing upward into the donor chamber with effective permeation area of 0.66 cm^2. The receptor and donor chambers were filled with PBS solution, and the receptor fluid was continuously stirred with a magnetic bar at 280 rpm to maintain homogeneity. After 1 h equilibration, the solution in the receptor chamber was replaced with fresh PBS, and 300 μl of LC solution or 300 mg of LC gel was applied on the skin in the donor chamber, which was then covered with a parafilm to avoid any evaporation process. The samples of receptor cell were withdrawn through at predetermined time intervals and the receptor phase was immediately refreshed by equal volume of PBS buffer to keep a constant volume. The samples were analyzed by HPLC/UV. The results were expressed as the mean±S.D. (n=3-4 independent samples).
The quantitative determination of LC was performed by HPLC using methanol-190 mM KH2PO4 water (87:13) as mobile phase at a flow rate of 0.6 ml/min, by LC-2010A (Shimadzu, Japan). The injection volume was 20 μl. The analysis was performed in a YMC-Pack ODS-A C18 column with dimensions of 250 mm×4.6 mm i.d., 5 μm particle size (YMC Inc., USA). The column eluant was monitored at 225 nm. The detection limit is 20 μg ml^−1. The inter- and intra-day variability was less than 5%.
The cumulative amount of drug permeated per unit area versus time was plotted. The permeation rates of LC were calculated from the slope of linear portion of the plots. Data analysis was carried out with Microsoft Excel, Version 2000. Results were presented as the mean±S.D. (n=3-4 independent samples). Statistically significant differences were determined using the analysis of variance (ANOVA) with P<0.05 as a minimal level of significance.

[3] = Skin penetration of active agent on applicator pre-treated skin
[4] = In vitro permeation study, Franz-type diffusion cells, porcine ear skin; conditions: for Permeation rates of LC / Cumulative amount of LC: porcine ear skin, FMA; for Cumulative amount of LC: 8 h
[5] = In vivo permeation study: pharmacokinetics and absolute bioavailability of LC in rats; conditions: rat; for bioavailability / AUC(0-inf) / Cmax / Tmax: male, Sprague-Dawley, plasma; for AUC(0-inf): AUC0-∞; for Plasma concentration: intravenous 200 mg/rat
Text: Male Sprague-Dawley rats (250 g±10 g) were equally divided into four groups (3 for each): group A, B, C and D. Before administration, all rats allowed to acclimatize for one week. One day before administration, rats were fasted overnight but allowed access to water. The hair of abdominal skin was carefully shaved by electric clippers for Group A and B. The rats in group A were pretreated by FMA with an area of 2 cm^2, the group B was untreated as a control. Then hydrogel patch containing LC 750 mg was applied to each rat by an adhesive housing for 6 h. Group C and Group D were control groups of oral and intravenous injection administration of 1 ml LC solution (200 mg/ml). A volume of 0.5 ml blood samples were taken before administration and at predetermined time intervals after LC administration. Plasma samples were immediately separated by centrifugation at 4000×g for 7 mins, and stored at −80° C. until assay.
Pretreatment method of samples: 120 μl of plasma was deproteinized with 600 μl of 0.6 M perchloric acid. The mixture was shaken for 30 s and allowed to stand in an ice bath for about 15 mins. After centrifuged at 4000×g for 7 mins, 500 μl of supernatant was transferred to a new tube in which 300 μl of 0.5 M K2CO3 was added, the mixture was shaken for 30 s and incubated in an ice-bath for 15 mins. Precipitate of KClO4 was removed by centrifugation at 4000×g for 7 mins, and 200 μl of the supernatant with free LC was separated for the assay.
Assays: The concentration of free LC in serum was determined by enzymatic assay kit with a limitation detection of 0.8 μg/ml.
Maximum plasma concentration (Cmax) and the time to reach this peak (Tmax) were directly identified from the pharmacokinetic curves (LC plasma concentration versus time). Area under the plasma concentration-time curve (AUC0→∞) was calculated by using the trapezoidal rule. Absolute bioavailability (A.B.) of LC after oral and FMA administration comparing with intravenous administration was calculated using the following equation:

[6] = With FMA, CP980 gel patch 750 mg/rat, 6 h application

**Q.** With `C[N+](C)(C)C[C@H](O)CC(=O)[O-]` [LC, (3R)-3-hydroxy-4-trimethylazaniumylbutanoate] as the compound, how does the ER (enhancement ratio, FMA permeation rates/passive permeation rates) ([1]; human skin) read?
**A.** 59

**Q.** What about the “Permeation rates, FMA” value ([1]; human skin dermatomed ≈800 μm, FMA pretreatment, donor 640 mg/mL) of the same compound?
**A.** 10.65 ± 2.12 mg/cm^2/h

**Q.** And the “Permeation rates, Passive Diffusion” value ([1]; human skin dermatomed ≈800 μm, without FMA, donor 640 mg/mL)?
**A.** 0.18 ± 0.02 mg/cm^2/h

**Q.** What about the “Permeation rate through rat skin relative to human skin” value ([2]; after FMA-puncture) of the same compound?
**A.** 3.7 times

**Q.** What about the “Permeation rate through rat skin relative to human skin” value ([2]; passive diffusion) of the same compound?
**A.** about 13.8 times

**Q.** And the ER (enhancement ratio, FMA permeation rates/passive permeation rates) ([2]; rat skin)?
**A.** 16

**Q.** And the “Permeation rates, FMA” value ([2]; rat skin full thickness, FMA pretreatment, donor 640 mg/mL)?
**A.** 40.16 ± 3.97 mg/cm^2/h

**Q.** What about the “Permeation rates, Passive Diffusion” value ([2]; rat skin full thickness, without FMA, donor 640 mg/mL) of the same compound?
**A.** 2.49 ± 0.40 mg/cm^2/h

**Q.** And the “Skin penetration speed on applicator pre-treated skin” value [3]?
**A.** 10 times faster

**Q.** What about the “Apparent dose of LC” value [6] of the same compound?
**A.** 200 mg/rat

**Q.** What about the “The residual amount in patch” value [6] of the same compound?
**A.** 550 mg/rat

**Q.** What about the “The residual amount in patch” value (Without FMA, CP980 gel patch 750 mg/rat, 6 h application) of the same compound?
**A.** 764 mg/rat

**Q.** And the “Difference between residual and initial content of patch” value (rat, in vivo)?
**A.** no significant difference

**Q.** What about the “Permeation rates, FMA” value ([4]; porcine ear skin dermatomed ≈800 μm, FMA pretreatment, donor 640 mg/mL) of the same compound?
**A.** 11.08 ± 2.05 mg/cm^2/h

**Q.** And the “Permeation rates, Passive Diffusion” value ([4]; porcine ear skin dermatomed ≈800 μm, without FMA, donor 640 mg/mL)?
**A.** 0.37 ± 0.04 mg/cm^2/h

**Q.** What about the “Permeation rates of LC” value ([4]; donor concentration 650 mg/ml) of the same compound?
**A.** 11.08±2.05 mg/cm^2/h

**Q.** What about the “Cumulative amount of LC” value ([4]; donor concentration 650 mg/ml) of the same compound?
**A.** 93.23±17.76 mg/cm^2

**Q.** And the “Permeation rates of LC” value ([4]; donor concentration 800 mg/ml)?
**A.** 11.80±1.50 mg/cm^2/h

**Q.** And the “Cumulative amount of LC” value ([4]; donor concentration 800 mg/ml)?
**A.** 97.20±12.60 mg/cm^2

**Q.** What about the bioavailability ([5]; iv, 200 mg) of the same compound?
**A.** 100%

**Q.** And the AUC(0-inf) ([5]; iv, 200 mg, Intravenous 200 mg/rat)?
**A.** 3680 µg·h/mL

**Q.** And the Cmax ([5]; po, 200 mg)?
**A.** 40 ± 11 µg/mL

**Q.** What about the Tmax ([5]; po, 200 mg) of the same compound?
**A.** 2 h

**Q.** And the bioavailability ([5]; po, 200 mg)?
**A.** 8%

**Q.** And the AUC(0-inf) ([5]; po, 200 mg, Oral 200 mg/rat)?
**A.** 309 µg·h/mL

**Q.** And the Cmax ([5]; topical or ocular, 750 mg)?
**A.** 530 ± 86 µg/mL

**Q.** What about the Tmax ([5]; topical or ocular, 750 mg) of the same compound?
**A.** 4 h

**Q.** And the bioavailability ([5]; topical or ocular, 750 mg)?
**A.** 22%

**Q.** What about the AUC(0-inf) ([5]; topical or ocular, 750 mg, FMA delivery 750 mg/rat) of the same compound?
**A.** 3020 µg·h/mL

**Q.** And the “Cmax after FMA delivery relative to oral administration” value ([5]; FMA 750 mg/rat vs oral 200 mg/rat)?
**A.** about 13 fold

**Q.** What about the “AUC0-∞” value ([5]; FMA delivery 750 mg/rat) of the same compound?
**A.** 3049 µg·h/mL

**Q.** And the Plasma concentration ([5]; at 3 min)?
**A.** 3900 ± 420 µg/mL

**Q.** What about the Plasma concentration ([5]; at 2 h) of the same compound?
**A.** 270 ± 50 µg/mL
